ChEMBL document CHEMBL1137957, “Probing pockets S2-S4' of the gamma-secretase active site with (hydroxyethyl)urea peptidomimetics” (Bioorg Med Chem Lett, 2004)
Values belong to the compound of their own block, whether it stands above or below them.

Biological target: Gamma-secretase
Experiment: Inhibition of amyloid-beta production in Chinese hamster ovary (CHO) cells expressing human amyloid precursor protein (APP)
Assay type: functional, cell-based

Compound: COC(=O)[C@H](CC(C)C)NC(=O)[C@@H](NC(=O)[C@H](CC(C)C)NC(=O)N(Cc1ccccc1)C[C@@H](O)[C@H](Cc1ccccc1)NC(=O)OC(C)(C)C)C(C)C
IC50: 540 nM

Compound: COC(=O)[C@@H](NC(=O)[C@@H](NC(=O)[C@H](CC(C)C)NC(=O)N(Cc1ccccc1)C[C@@H](O)[C@H](Cc1ccccc1)NC(=O)OC(C)(C)C)C(C)C)C(C)C
IC50: 530 nM

Compound: COC(=O)[C@H](Cc1ccccc1)NC(=O)[C@H](CC(C)C)NC(=O)N(CC(C)C)C[C@@H](O)[C@H](Cc1ccccc1)NC(=O)OC(C)(C)C
IC50: 400 nM

Compound: COC(=O)[C@H](Cc1ccccc1)NC(=O)[C@H](CC(C)C)NC(=O)N(C[C@@H](O)[C@H](Cc1ccccc1)NC(=O)OC(C)(C)C)C(C)C
IC50: 22000 nM

Compound: COC(=O)[C@@H](NC(=O)[C@H](CC(C)C)NC(=O)N(Cc1ccccc1)C[C@@H](O)[C@H](Cc1ccccc1)NC(=O)[C@H](C)NC(=O)OC(C)(C)C)C(C)C
IC50: 150 nM

Compound: COC(=O)[C@@H](NC(=O)[C@H](CC(C)C)NC(=O)N(Cc1ccccc1)C[C@@H](O)[C@H](Cc1ccccc1)NC(=O)[C@@H](NC(=O)OC(C)(C)C)C(C)C)C(C)C
IC50: 70 nM

Compound: COC(=O)[C@H](Cc1ccccc1)NC(=O)[C@H](C)NC(=O)N(Cc1ccccc1)C[C@@H](O)[C@H](Cc1ccccc1)NC(=O)OC(C)(C)C
IC50: 140 nM

Compound: COC(=O)[C@H](C)NC(=O)[C@H](CC(C)C)NC(=O)N(Cc1ccccc1)C[C@@H](O)[C@H](Cc1ccccc1)NC(=O)OC(C)(C)C
IC50: 20000 nM

Compound: COC(=O)[C@H](Cc1ccccc1)NC(=O)[C@H](CC(C)C)NC(=O)N(Cc1ccccc1)C[C@@H](O)[C@H](Cc1ccccc1)NC(=O)OC(C)(C)C (stereo in doubt; 2)
IC50: 390 nM

Compound: COC(=O)[C@H](Cc1ccccc1)NC(=O)[C@H](CC(C)C)NC(=O)N(Cc1ccccc1)C[C@@H](O)[C@H](Cc1ccccc1)NC(=O)OC(C)(C)C (stereo in doubt; 9)
IC50: 400 nM

Compound: COC(=O)[C@H](Cc1ccccc1)NC(=O)[C@H](CC(C)C)NC(=O)N(Cc1ccccc1)C[C@@H](O)[C@H](Cc1ccccc1)NC(=O)OC(C)(C)C (stereo in doubt; 12)
IC50: 390 nM

The remaining compounds from weak to strong by IC50, led by results:

IC50: 18000 nM
Compound: COC(=O)[C@H](Cc1ccccc1)NC(=O)[C@H](Cc1ccccc1)NC(=O)N(Cc1ccccc1)C[C@@H](O)[C@H](Cc1ccccc1)NC(=O)OC(C)(C)C

IC50: 8000 nM
Compound: COC(=O)[C@H](CC(C)C)NC(=O)N(Cc1ccccc1)C[C@@H](O)[C@H](Cc1ccccc1)NC(=O)OC(C)(C)C

IC50: 3100 nM
Compound: COC(=O)[C@H](Cc1ccccc1)NC(=O)[C@H](CC(C)C)NC(=O)N(C)C[C@@H](O)[C@H](Cc1ccccc1)NC(=O)OC(C)(C)C

IC50: 670 nM
Compound: COC(=O)[C@H](C)NC(=O)[C@@H](NC(=O)[C@H](CC(C)C)NC(=O)N(Cc1ccccc1)C[C@@H](O)[C@H](Cc1ccccc1)NC(=O)OC(C)(C)C)C(C)C

IC50: 650 nM
Compound: COC(=O)[C@H](CC(C)C)NC(=O)[C@H](CC(C)C)NC(=O)N(Cc1ccccc1)C[C@@H](O)[C@H](Cc1ccccc1)NC(=O)OC(C)(C)C

IC50: 500 nM
Compound: COC(=O)[C@@H](NC(=O)[C@H](CC(C)C)NC(=O)N(Cc1ccccc1)C[C@@H](O)[C@H](Cc1ccccc1)NC(=O)[C@H](Cc1ccccc1)NC(=O)OC(C)(C)C)C(C)C

IC50: 400 nM
Compound: COC(=O)[C@H](Cc1ccccc1)NC(=O)[C@@H](NC(=O)N(Cc1ccccc1)C[C@@H](O)[C@H](Cc1ccccc1)NC(=O)OC(C)(C)C)C(C)C

IC50: 270 nM
Compound: CC[C@H](C)[C@H](NC(=O)[C@@H](NC(=O)[C@H](CC(C)C)NC(=O)N(Cc1ccccc1)C[C@@H](O)[C@H](Cc1ccccc1)NC(=O)OC(C)(C)C)C(C)C)C(=O)OC

IC50: 250 nM
Compound: COC(=O)[C@H](Cc1ccccc1)NC(=O)[C@@H](NC(=O)[C@H](CC(C)C)NC(=O)N(Cc1ccccc1)C[C@@H](O)[C@H](Cc1ccccc1)NC(=O)OC(C)(C)C)C(C)C

IC50: 230 nM
Compound: COC(=O)[C@@H](NC(=O)[C@H](CC(C)C)NC(=O)N(Cc1ccccc1)C[C@@H](O)[C@H](Cc1ccccc1)NC(=O)[C@H](CC(C)C)NC(=O)OC(C)(C)C)C(C)C

IC50: 220 nM
Compound: COC(=O)[C@@H](NC(=O)[C@H](CC(C)C)NC(=O)N(Cc1ccccc1)C[C@@H](O)[C@H](Cc1ccccc1)NC(=O)OC(C)(C)C)C(C)C
